# Like-named read-outs stand apart in the source and are kept apart here.
# What was measured:
# [1] = system: reserpine-induced blepharospasm; assay: antagonism to reserpine-induced blepharospasm; assay type: in vivo, male mice; details: Mus musculus, po, 3 h, read-out: Reserpine antagonism ED50, Blepharospasm
# Procedure: (§1) The antidepressant activity of the ergoline derivatives according to the invention can be evaluated by antagonism to reserpine-induced blepharospasm and hypothermia.
# (§2) The tests were performed in an air-conditioned room at a constant termperature of 19°±1° C. Randomized groups of male mice were respectively treated by gavage with appropriate screening doses (from a maximum of 25 mg/kg below) of the test compounds, suspended in the vehicle (Methocel 0.5%; 1 ml/100 g b.w.), or with the vehicle alone. One hour later the animals received an i.p. injection of reserpine (1.5 mg/kg; 1 ml/100 g b.w.), and one of the control groups the same volume of the vehicle alone (blank controls).
# (§3) Three hours after pretreatments, i.e. two hours after reserpine or vehicle treatments, blepharospasm was evaluated in scores as proposed by Rubin et al. (J. Pharmacol. 120, 125 (1957)). Two hours after the above mentioned evaluation the rectal temperature of the animals was recorded by an appropriate probe connected to a digital thermometer (Ellab DU-3).
# [2] = system: reserpine-induced hypothermia; assay: antagonism to reserpine-induced hypothermia; assay type: in vivo, male mice; details: Mus musculus, po, 5 h; mice; p.o. by gavage 1 h before reserpine 1.5 mg/kg i.p.; rectal temperature 2 h after blepharospasm evaluation
# Procedure: as §1, §2, §3
# [3] = orientative acute toxicity; details: in vivo, po
Structure (SMILES),ED50 [1],ED50 [2],LD50 [3],"ED50 ([1]; mice, p.o. by gavage 1 h before reserpine 1.5 mg/kg i.p., scored 2 h after reserpine)"
"C=CCN1C[C@H](C(=O)Nc2ccc(Cl)nn2)C[C@@H]2c3cccc4[nH]cc(c34)C[C@H]21 [Example 5, 6-allyl-8β-(6-chloro-3-pyridazinyl-carbamoyl)-ergoline]",3.6 mg/kg,4.5 mg/kg,> 600 mg/kg,–
"CN(C)CCCN1c2ccccc2CCc2ccccc21 [Imipramine, reference compound]",–,18.2 mg/kg,–,8.1 mg/kg
"Cc1nnc(NC(=O)[C@@H]2C[C@@H]3c4cccc5[nH]c(C)c(c45)C[C@H]3N(C)C2)s1 [Example 16, 2,6-dimethyl-8β-[2-(5-methyl-1,3,4-thiadiazolyl)-carbamoyl]-ergoline]",1 mg/kg,1.7 mg/kg,> 800 mg/kg,–
"CCCN1C[C@H](C(=O)Nc2nccs2)C[C@@H]2c3cccc4[nH]cc(c34)C[C@H]21 [Example 7, 6-propyl-8β-(2-thiazolyl-carbamoyl)-ergoline]",0.5 mg/kg,0.6 mg/kg,> 300 mg/kg,–
"Cc1nnc(NC(=O)[C@@H]2C[C@@H]3c4cccc5[nH]cc(c45)C[C@H]3N(C)C2)s1 [Example 10, 6-methyl-8β-[2-(5-methyl-1,3,4-thiadiazolyl)-carbamoyl]-ergoline]",3.5 mg/kg,3.1 mg/kg,> 600 mg/kg,–
"CN1C[C@H](C(=O)Nc2nccs2)C[C@@H]2c3cccc4c3c(cn4C)C[C@H]21 [1,6-dimethyl-8β-(2-thiazolyl-carbamoyl)-ergoline, reference compound]",7 mg/kg,15 mg/kg,–,–
"Cc1[nH]c2cccc3c2c1C[C@@H]1[C@@H]3C[C@@H](C(=O)Nc2ccc(Cl)nn2)CN1C [Example 4, 2,6-dimethyl-8β-(6-chloro-3-pyridazinyl-carbamoyl)-ergoline]",0.2 mg/kg,0.6 mg/kg,> 300 mg/kg,–
"C=CCN1C[C@H](C(=O)Nc2nccs2)C[C@@H]2c3cccc4[nH]cc(c34)C[C@H]21 [Example 6, 6-allyl-8β-(2-thiazolyl-carbamoyl)-ergoline]",2.5 mg/kg,4 mg/kg,> 300 mg/kg,–

# Reference: patent publication US4675404A, “8-pyridazinylcarbamoyl ergolines” (Farmitala Carlo Erba S.p.A., priority 1981, dated 1987)
